Test results taken from US10273224B2, “Substituted pyrimidine compounds, compositions and medicinal applications thereof” (JUBILANT BIOSYS LIMITED, priority 2013, dated 2019).

Molecular target: T1, EGFR (L858R & T790M) (Homo sapiens, UniProt P00533, L858R/T790M)
T1 construct: GST; purchased Proqinase
Assay: EGFR (L858R & T790M) inhibition assay, HTRF method
Details: biochemical HTRF; EGFR (T790M/L858R) 2.5 nM, ATP 5 μM, 60 min room temperature
Method in brief: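 GST-EGFR T790M/L858R (2.5 nM) phosphorylating biotinylated gastrin precursor peptide (0.5 μM) with 5 μM ATP in HEPES pH 7.4/Mg/Mn buffer, 60 min room temperature; compounds from 10 μM top. HTRF read-out (Eu anti-pTyr, SA-APC), 665/620 nm; IC50 from % inhibition.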

T1 sequence (P00533 25-1210 T790M/L858R): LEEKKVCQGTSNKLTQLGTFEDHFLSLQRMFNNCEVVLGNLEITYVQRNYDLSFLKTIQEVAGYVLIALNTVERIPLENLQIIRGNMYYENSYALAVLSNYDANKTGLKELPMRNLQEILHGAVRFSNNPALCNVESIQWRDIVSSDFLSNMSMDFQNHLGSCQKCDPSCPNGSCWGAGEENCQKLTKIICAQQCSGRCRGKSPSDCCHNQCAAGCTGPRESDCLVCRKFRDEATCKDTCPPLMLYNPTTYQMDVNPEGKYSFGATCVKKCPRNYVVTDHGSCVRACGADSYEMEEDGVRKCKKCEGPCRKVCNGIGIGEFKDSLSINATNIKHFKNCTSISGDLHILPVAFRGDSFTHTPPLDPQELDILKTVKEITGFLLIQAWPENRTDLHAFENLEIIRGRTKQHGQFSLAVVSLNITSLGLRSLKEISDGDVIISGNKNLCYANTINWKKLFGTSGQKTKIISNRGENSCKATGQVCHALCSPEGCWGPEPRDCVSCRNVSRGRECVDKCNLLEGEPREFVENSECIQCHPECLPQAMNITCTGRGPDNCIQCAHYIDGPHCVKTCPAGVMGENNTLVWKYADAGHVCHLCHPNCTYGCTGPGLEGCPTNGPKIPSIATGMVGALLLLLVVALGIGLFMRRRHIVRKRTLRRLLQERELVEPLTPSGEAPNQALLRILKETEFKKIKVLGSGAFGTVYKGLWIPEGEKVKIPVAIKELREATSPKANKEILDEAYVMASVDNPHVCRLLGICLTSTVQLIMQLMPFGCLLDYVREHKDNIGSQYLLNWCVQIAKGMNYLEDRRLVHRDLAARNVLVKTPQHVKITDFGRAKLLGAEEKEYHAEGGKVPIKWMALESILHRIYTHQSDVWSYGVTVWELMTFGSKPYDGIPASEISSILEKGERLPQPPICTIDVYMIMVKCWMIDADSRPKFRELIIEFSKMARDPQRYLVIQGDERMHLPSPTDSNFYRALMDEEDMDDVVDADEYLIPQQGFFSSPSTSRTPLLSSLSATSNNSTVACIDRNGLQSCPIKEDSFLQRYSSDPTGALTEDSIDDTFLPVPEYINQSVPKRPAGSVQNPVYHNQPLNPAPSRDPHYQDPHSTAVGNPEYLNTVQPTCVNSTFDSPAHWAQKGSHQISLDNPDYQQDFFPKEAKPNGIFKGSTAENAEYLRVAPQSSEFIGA

| SMILES | IC50 [nM] |
| --- | --- |
| C=CC(=O)NC1CCCC(Nc2nc(Nc3cc(COC)n(C)n3)ncc2Cl)C1 (centres unmarked) [Compound I-98, N-(3-((5-chloro-2-((5-(methoxymethyl)-1-methyl-1H-pyrazol-3-yl)amino)pyrimidin-4-yl)amino)cyclohexyl)acrylamide] | > 100 |
| C=CC(=O)Nc1ccc(F)c(Nc2nc(Nc3cnn(C)c3)ncc2Cl)c1 [Compound I-39, N-(3-((5-chloro-2-((1-methyl-1H-pyrazol-4-yl)amino)pyrimidin-4-yl)amino)-4-fluorophenyl)acrylamide] | < 10 |
| C=CC(=O)Nc1cccc(Nc2nc(Nc3cnn(C)c3C)ncc2Cl)n1 (single isomer, unassigned) [Compound I-74, N-(6-((5-chloro-2-((1,5-dimethyl-1H-pyrazol-4-yl)amino)pyrimidin-4-yl)amino)pyridin-2-yl)acrylamide] | > 100 |
| C=CC(=O)Nc1ccc(F)c(Nc2nc(Nc3cn(C)nc3Cl)ncc2Cl)c1 [Compound I-58, N-(3-((5-chloro-2-((3-chloro-1-methyl-1H-pyrazol-4-yl)amino)pyrimidin-4-yl)amino)-4-fluorophenyl)acrylamide] | < 10 |
| C=CC(=O)Nc1cccc(Nc2nc(Nc3cn(C)nc3C)ncc2Cl)n1 (single isomer, unassigned) [Compound I-73, N-(6-((5-chloro-2-((1,3-dimethyl-1H-pyrazol-4-yl)amino)pyrimidin-4-yl)amino)pyridin-2-yl)acrylamide] | 10 to 100 |
| C=CC(=O)NC1CCCC(Nc2nc(Nc3cnn(C)c3)ncc2Cl)C1 (centres unmarked) [Compound I-126, N-(3-((5-chloro-2-((1-methyl-1H-pyrazol-4-yl)amino)pyrimidin-4-yl)amino)cyclohexyl)acrylamide 4-methylbenzenesulfonate] | > 100 |
| C=CC(=O)Nc1cccc(Oc2nc(Nc3cc4n(n3)CCN(C)C4)ncc2Cl)c1 [Compound I-78, N-(3-((5-chloro-2-((5-methyl-4,5,6,7-tetrahydropyrazolo[1,5-a]pyrazin-2-yl)amino)pyrimidin-4-yl)oxy)phenyl)acrylamide] | 10 to 100 |
| C=CC(=O)Nc1cccc(Nc2nc(Nc3cc(COC)n(C)n3)ncc2Cl)c1 [Compound I-24, N-(3-((5-chloro-2-((5-(methoxymethyl)-1-methyl-1H-pyrazol-3-yl)amino)pyrimidin-4-yl)amino)phenyl)acrylamide] | 10 to 100 |
| C=CC(=O)N[C@H]1CCC[C@H](Nc2nc(Nc3cnn(C)c3)ncc2Cl)C1 (single isomer, unassigned) [I-107 (Enantiomer 2)] | > 100 |
| C=CC(=O)Nc1cccc(Oc2nc(Nc3cnn(CCOC)c3)ncc2Cl)c1 [Compound I-87, N-(3-((5-chloro-2-((1-(2-methoxyethyl)-1H-pyrazol-4-yl)amino)pyrimidin-4-yl)oxy)phenyl)acrylamide] | 10 to 100 |
| C=CC(=O)N[C@@H]1CCC[C@H](Nc2nc(Nc3cnn(C)c3)ncc2Cl)C1 (single isomer, unassigned) [I-105 (Enantiomer 4)] | > 100 |
| C=CC(=O)Nc1cccc(Nc2nc(Nc3cnn(CCOC)c3C)ncc2Cl)c1 [Compound I-3, N-(3-((5-chloro-2-((1-(2-methoxyethyl)-5-methyl-1H-pyrazol-4-yl)amino)pyrimidin-4-yl)amino)phenyl)acrylamide] | 10 to 100 |
| C=CC(=O)Nc1ccc(F)c(Nc2nc(Nc3cc(C)ns3)ncc2Cl)c1 [Compound I-117, N-(3-((5-chloro-2-((3-methylisothiazol-5-yl)amino)pyrimidin-4-yl)amino)-4-fluorophenyl)acrylamide] | < 10 |
| C=CC(=O)Nc1cc(Cl)cc(Nc2nc(Nc3cnn(C)c3)ncc2Cl)c1 [Compound I-35, N-(3-chloro-5-((5-chloro-2-((1-methyl-1H-pyrazol-4-yl)amino)pyrimidin-4-yl)amino)phenyl)acrylamide] | < 10 |
| C=CC(=O)N[C@@H]1CCC[C@@H](Nc2nc(Nc3cnn(C)c3)ncc2Cl)C1 (single isomer, unassigned) [I-106 (Enantiomer 1)] | > 100 |
| C=CC(=O)Nc1cccc(Oc2nc(Nc3cnn(CC4CC4)c3)ncc2Cl)c1 [Compound I-82, N-(3-((5-chloro-2-((1-(cyclopropylmethyl)-1H-pyrazol-4-yl)amino)pyrimidin-4-yl)oxy)phenyl)acrylamide] | 10 to 100 |
| C=CC(=O)Nc1ccnc(Nc2nc(Nc3cnn(C)c3)ncc2Cl)c1 [Compound I-116, N-(2-((5-chloro-2-((1-methyl-1H-pyrazol-4-yl)amino)pyrimidin-4-yl)amino)pyridin-4-yl)acrylamide] | 10 to 100 |
| C=CC(=O)N1CCCC(Oc2nc(Nc3cnn(C)c3)ncc2Cl)C1 (single isomer, unassigned) [II-13 (Enantiomer 2), 1-(3-((5-chloro-2-((1-methyl-1H-pyrazol-4-yl)amino)pyrimidin-4-yl)oxy)piperidin-1-yl)prop-2-en-1-one] | > 100 |
| C=CC(=O)Nc1cccc(Oc2nc(Nc3cnn(C(C)C)c3)ncc2Cl)c1 [Compound I-79, N-(3-((5-chloro-2-((1-isopropyl-1H-pyrazol-4-yl)amino)pyrimidin-4-yl)oxy)phenyl)acrylamide] | 10 to 100 |
| CN(C)C/C=C/C(=O)NC1CCCC(Oc2nc(Nc3cnn(C)c3)ncc2Cl)C1 (single isomer, unassigned) [I-90 (Isomer 1), (E)-N-(3-((5-chloro-2-((1-methyl-1H-pyrazol-4-yl)amino)pyrimidin-4-yl)oxy)cyclohexyl)-4-(dimethylamino)but-2-enamide] | > 100 |
| C=CC(=O)N1CCCC(Nc2nc(Nc3cnn(C4CCC4)c3)ncc2Cl)C1 (single isomer, unassigned) [II-5 (Enantiomer 1), 1-(3-((5-chloro-2-((1-cyclobutyl-1H-pyrazol-4-yl)amino)pyrimidin-4-yl)amino)piperidin-1-yl)prop-2-en-1-one] | > 100 |

More lines, now with the values ahead:

| IC50 [nM] | SMILES |
| --- | --- |
| > 100 | C/C=C/C(=O)Nc1cccc(Nc2nc(Nc3cnn(C4CCN(C)CC4)c3)ncc2Cl)c1 [Compound I-51, (E)-N-(3-((5-chloro-2-((1-(1-methylpiperidin-4-yl)-1H-pyrazol-4-yl)amino)pyrimidin-4-yl)amino)phenyl)but-2-enamide] |
| 10 to 100 | C=CC(=O)Nc1cccc(Nc2nc(Nc3cnn(S(=O)(=O)C4CC4)c3)ncc2Cl)c1 [Compound I-22, N-(3-((5-chloro-2-((1-(cyclopropylsulfonyl)-1H-pyrazol-4-yl)amino)pyrimidin-4-yl)amino)phenyl)acrylamide] |
| < 10 | C=CC(=O)Nc1cccc(Nc2nc(Nc3cnn(CCO)c3)ncc2Cl)c1 [Compound I-21, N-(3-((5-chloro-2-((1-(2-hydroxyethyl)-1H-pyrazol-4-yl)amino)pyrimidin-4-yl)amino)phenyl)acrylamide] |
| 10 to 100 | C=CC(=O)Nc1cccc(Nc2nc(Nc3cnn(C4COC4)c3)ncc2Cl)c1 [Compound I-31, N-(3-((5-chloro-2-((1-(oxetan-3-yl)-1H-pyrazol-4-yl)amino)pyrimidin-4-yl)amino)phenyl)acrylamide] |
| 10 to 100 | C=CC(=O)Nc1cccc(Nc2nc(Nc3cnn(C4CCOC4)c3)ncc2Cl)c1 (centres unmarked) [Compound I-49, N-(3-((5-chloro-2-((1-(tetrahydrofuran-3-yl)-1H-pyrazol-4-yl)amino)pyrimidin-4-yl)amino)phenyl)acrylamide] |
| 10 to 100 | C=CC(=O)Nc1cccc(Nc2nc(Nc3cnn(S(C)(=O)=O)c3)ncc2Cl)c1 [Compound I-10, N-(3-((5-chloro-2-((1-(methylsulfonyl)-1H-pyrazol-4-yl)amino)pyrimidin-4-yl)amino)phenyl)acrylamide] |
| > 100 | C=CC(=O)Nc1cc(Nc2nc(Nc3cnn(C)c3)ncc2Cl)ccc1OC1CCOC1 (centres unmarked) [Compound I-55, N-(5-((5-chloro-2-((1-methyl-1H-pyrazol-4-yl)amino)pyrimidin-4-yl)amino)-2-((tetrahydrofuran-3-yl)oxy)phenyl)acrylamide] |
| 10 to 100 | C=CS(=O)(=O)Nc1cccc(Nc2nc(Nc3cnn(C)c3)ncc2Cl)c1 [Compound I-65, N-(3-((5-chloro-2-((1-methyl-1H-pyrazol-4-yl)amino)pyrimidin-4-yl)amino)phenyl)ethenesulfonamide] |
| < 10 | C=CC(=O)Nc1cccc(Nc2nc(Nc3cnn(C4CCN(C)CC4)c3)ncc2Cl)c1 [Compound I-1, N-(3-((5-chloro-2-((1-(1-methylpiperidin-4-yl)-1H-pyrazol-4-yl)amino)pyrimidin-4-yl)amino)phenyl)acrylamide] |
| > 100 | CN1CCC(n2cc(Nc3ncc(Cl)c(Nc4cccc(NC(=O)C=C5CCOCC5)c4)n3)cn2)CC1 [Compound I-26, N-(3-((5-chloro-2-((1-(1-methylpiperidin-4-yl)-1H-pyrazol-4-yl)amino)pyrimidin-4-yl)amino)phenyl)-2-(dihydro-2H-pyran-4(3H)-ylidene)acetamide] |
| > 100 | CN1CCC(n2cc(Nc3ncc(F)c(Nc4cccc(NC(=O)C=C5CCCCC5)c4)n3)cn2)CC1 [Compound I-50, 2-cyclohexylidene-N-(3-((5-fluoro-2-((1-(1-methylpiperidin-4-yl)-1H-pyrazol-4-yl)amino)pyrimidin-4-yl)amino)phenyl)acetamide] |
| 10 to 100 | C=CC(=O)Nc1cccc(Nc2nc(Nc3cnn(C4CCNC(=O)C4)c3)ncc2Cl)c1 (centres unmarked) [Compound I-43, N-(3-((5-chloro-2-((1-(2-oxopiperidin-4-yl)-1H-pyrazol-4-yl)amino)pyrimidin-4-yl)amino)phenyl)acrylamide] |
| 10 to 100 | C#CC(=O)Nc1cccc(Nc2nc(Nc3cnn(C)c3)ncc2Cl)c1 [Compound I-32, N-(3-((5-chloro-2-((1-methyl-1H-pyrazol-4-yl)amino)pyrimidin-4-yl)amino)phenyl)propiolamide] |
| 10 to 100 | C=CC(=O)Nc1cccc(Nc2nc(Nc3cnn(C)c3)ncc2C2CC2)c1 [Compound I-76, N-(3-((5-cyclopropyl-2-((1-methyl-1H-pyrazol-4-yl)amino)pyrimidin-4-yl)amino)phenyl)acrylamide] |
